Patent US20240156802A1, “METHODS FOR TREATING DISORDERS AMELIORATED BY MUSCARINIC RECEPTOR ACTIVATION” (KARUNA THERAPEUTICS, INC., priority 2021, published 2024)

Assays:
[1] = 25-75 mg TID, 75-225 mg TDD; cited from earlier work
[2] = Phase 1b exploratory PK of xanomeline in healthy elderly subjects given KarXT; format: in vivo, human; conditions: for blood levels in healthy elderly subjects compared with adults under 65: Cohorts 1 and 2, lower oral doses; for Cmax: human, plasma, oral
Procedure: (§1) The purpose of this Phase 1b clinical trial was to evaluate the safety and tolerability of KarXT in healthy elderly volunteers and to assess its potential efficacy and safety in dementia-related psychosis (DRP). In the Phase 1b trial, the various doses and ratios were evaluated for both xanomeline and trospium in healthy elderly volunteers using a flexible dosing protocol titrated over about 2 to 3 weeks. The maximum dose was reached on Day 12, 15, and 17 in Cohorts 1, 2, and 3, respectively. Dosing lasted a total of 14, 18, and 20 days, respectively. Each cohort consisted of 16 healthy elderly volunteers.
(§2) This was a Phase 1, randomized, double-blind, multiple-dose, adaptive-design study evaluating the safety, tolerability, and exploratory PK of KarXT in healthy elderly subjects. The study consisted of a screening period of up to 28 days. This inpatient investigative period included a treatment period and a post-treatment observation period. A follow-up visit was completed 7±3 days after administering the final dose of the study drug. For Cohort 1, the inpatient investigative period was up to 17 days, including admission, a treatment period of up to 14 days, and a 2-day post-treatment observation period. For Cohort 2, the inpatient investigative period was up to 21 days, including admission, a treatment period of up to 18 days, and a 2-day post-treatment observation period. For Cohort 3, the inpatient investigative period was up to 23 days, including admission, a treatment period of up to 20 days, and a 2-day post-treatment observation period.
Subjects assigned to active treatment in Cohorts 1 and 2 started treatment with a lead-in dose of KarXT for 2 days. Subjects assigned to active treatment in Cohort 3 started treatment with a lead-in dose of KarXT for 4 days. KarXT doses were increased beginning on Day 3 (or Day 5 for Cohort 3) according to cohort-specific plans (FIGURE S 1) to achieve the following final cohort-specific total daily dose (TDD) of KarXT, if tolerated: • Cohort 1: 200/40 mg • Cohort 2: 200/30 mg • Cohort 3: 150/20 mg
The assessment of adverse events, clinical laboratory samples, electrocardiograms (ECGs), vital signs (including orthostatic vital signs), urine output monitoring, Columbia-Suicide Severity Rating Scale (C-SSRS), serial PK sampling, and collecting saliva to measure saliva volume were performed at defined time points during the study.
Table 2 contains the xanomeline Cmax data collected on the final day of the dosing period for cohorts 1, 2, and 3 in the healthy elderly trial compared to day 28 (last day PK data was collected) in the EMERGENT-1 trial for a patient population of ages 18-60 inclusive.

[3] = 26-week study of Alzheimer's disease; cited from earlier work
[4] = 125/30 mg dose group in EMERGENT-1, day 28, ages 18-60, TDD 250 mg; cited from earlier work
[5] = Phase 1b safety and tolerability of KarXT in healthy elderly subjects (adverse events); format: in vivo, human; conditions: 30 mg TDD versus 40 mg TDD, given with xanomeline, normal elderly volunteers
Procedure: as §1
as §2, with “For Cohort 3, the inpatient investigative period was up to 23 days, including admission, a treatment period of up to 20 days, and a 2-day post-treatment observation period.” left out

Cmax ([2]; Cohort 1, final day of dosing, average dose before PK 67 mg, average TDD 172 mg) [ng/mL]	Cmax ([2]; Cohort 2, final day of dosing, average dose before PK 61 mg, average TDD 156 mg) [ng/mL]	Cmax ([2]; Cohort 3, final day of dosing, average dose before PK 39 mg, average TDD 116 mg) [ng/mL]	mean plasma levels (Cmax) compared with EMERGENT-1 (200-250 mg xanomeline) ([2]; oral xanomeline about 100 to 200 mg per day, healthy elderly volunteers)	Structure (SMILES)	effect on schizophrenia [1]	blood levels in healthy elderly subjects compared with adults under 65 [2]	dropout rate [3] [%]	mean Cmax of xanomeline [4] [ng/mL]	tolerability by trospium dose [5]
7.3 ± 2	14.2 ± 5.3	7.2 ± 2	comparable to, or slightly higher than	CCCCCCOc1nsnc1C1=CCCN(C)C1 [Xanomeline, xanomeline]	alleviated	higher blood levels	56	9.4 ± 1.5	
				O=C(O[C@H]1C[C@H]2CC[C@@H](C1)[N+]21CCCC1)C(O)(c1ccccc1)c1ccccc1 [trospium, trospium chloride]		higher blood levels			performed better
